Values of other authors, collected in patent US20230255891A1, “Highly Compactable and Durable Direct Compression Excipients and Excipient Systems” (SPI Pharma, Inc., priority 2009, published 2023).

Legend:
[1] = in water at 25
[2] = for 80° C. Solubility Kilos/100 Kilo solution: spray liquid temperature; for solubility in water: at 80 C in solution

**Q.** With OC[C@@H](O)[C@@H](O[C@H]1O[C@@H](CO)[C@@H](O)[C@@H](O)[C@H]1O)[C@H](O)[C@@H](O)CO [Maltitol] as the compound, how does the “Solubility At 25 (g/100 g H2O)” value [1] read?
**A.** Its value is 175 g/100 g H2O.

**Q.** And the “80° C. Solubility Kilos/100 Kilo solution” value [2]?
**A.** The value was 80.5 Kilos/100 Kilo solution.

**Q.** What about the solubility in water [2] of the same compound?
**A.** Its solubility in water is “about 80%”.

**Q.** For OC[C@@H](O)[C@H](O)[C@@H](O)CO [Xylitol], which “Solubility At 25 (g/100 g H2O)” value [1] is on record?
**A.** Its value is 200 g/100 g H2O.

**Q.** Which “Solubility At 25 (g/100 g H2O)” value [1] does the source give for Anhydrous Isomalt here?
**A.** Its value is 39 g/100 g H2O.

**Q.** Which “Solubility At 25 (g/100 g H2O)” value [1] does the source give for OC[C@@H](O)[C@@H](O)[C@H](O)[C@@H](O)CO [Sorbitol] here?
**A.** The value was 235 g/100 g H2O.

**Q.** What about the “80° C. Solubility Kilos/100 Kilo solution” value [2] of the same compound?
**A.** Its value is 92 Kilos/100 Kilo solution.

**Q.** What about the solubility in water [2] of the same compound?
**A.** The solubility in water was “about 92%”.

**Q.** For OC[C@H]1O[C@@](CO)(O[C@H]2O[C@H](CO)[C@@H](O)[C@H](O)[C@H]2O)[C@@H](O)[C@@H]1O [Sucrose], which “Solubility At 25 (g/100 g H2O)” value [1] is on record?
**A.** Its value is 185 g/100 g H2O.

**Q.** Which “Solubility At 25 (g/100 g H2O)” value [1] does the source give for O=C(CO)[C@@H](O)[C@H](O)[C@H](O)CO [Fructose] here?
**A.** Its value is 400 g/100 g H2O.

**Q.** Which “80° C. Solubility Kilos/100 Kilo solution” value [2] does the source give for Isomalt here?
**A.** The value was 71 Kilos/100 Kilo solution.

**Q.** Which “Solubility At 25 (g/100 g H2O)” value [1] does the source give for OC[C@@H](O)[C@@H](O)CO [Erythritol] here?
**A.** The value was 61 g/100 g H2O.

**Q.** With OC[C@@H](O)[C@@H](O[C@@H]1O[C@H](CO)[C@H](O)[C@H](O)[C@H]1O)[C@H](O)[C@@H](O)CO [Lactitol Monohydrate] as the compound, how does the “Solubility At 25 (g/100 g H2O)” value [1] read?
**A.** Its value is 140 g/100 g H2O.

**Q.** Which “80° C. Solubility Kilos/100 Kilo solution” value [2] does the source give for OC[C@@H](O)[C@@H](O[C@@H]1O[C@H](CO)[C@H](O)[C@H](O)[C@H]1O)[C@H](O)[C@@H](O)CO [Lactitol] here?
**A.** Its value is 82 Kilos/100 Kilo solution.

**Q.** With OC[C@@H](O)[C@@H](O)[C@H](O)[C@H](O)CO [Mannitol] as the compound, how does the “Solubility At 25 (g/100 g H2O)” value [1] read?
**A.** Its value is 22 g/100 g H2O.

**Q.** What about the “80° C. Solubility Kilos/100 Kilo solution” value [2] of the same compound?
**A.** Its value is 47.3 Kilos/100 Kilo solution.

**Q.** What about the solubility in water [2] of the same compound?
**A.** The solubility in water was “about 47%”.

**Q.** Which “Solubility At 25 (g/100 g H2O)” value [1] does the source give for OCC(O)CO [Glycerin] here?
**A.** Its value is “Soluble”.
